The source made the active and inactive calls. The rule behind the calls is not given here.

In assay [1] the test system is HeLa. Briefly: cells. The following applies: Homo sapiens, 72 h.
Description: Cytotoxicity against human HeLa cells after 72 hrs by MTT assay
Assay [2] can be described thus: cells. Conditions: Homo sapiens, HCT-116, 72 h.
Assay [3] deals with A549. Briefly: cells. Conditions: Homo sapiens, A549, 72 h.
Description: Cytotoxicity against human A549 cells after 72 hrs by MTT assay
For assay [4], the system named is A549. As to the kind of experiment: Induction of growth arrest in human A549 cells assessed as mitotic chromosomes level at 1 uM after 6 to 48 hrs by fluorescence microscopy. In kind it is functional, cell-based.
The target of assay [5] is Tubulin (Homo sapiens) (UniProt P68371+Q9H4B7+P0DPH7+P68366+Q13509+Q71U36+P04350+Q3ZCM7+P07437+P68363+Q9BQE3+Q6PEY2+Q13885+Q9BVA1+Q9BUF5). As to the kind of experiment: Inhibition of tubulin in human A549 cells assessed as disruption of microtubules at 1 uM incubated for 6 hrs by immunofluorescence staining. In kind it is cell-based.
In assay [6] the test system is A549. As to the kind of experiment: Increase in polyploid cells in human A549 cells at 1 uM after 24 to 72 hrs by propidium iodide staining based flow cytometry. The format is functional, cell-based.
The test system of assay [7] is A549. As to the kind of experiment: Induction of growth arrest in human A549 cells assessed as MPM2 levels level at 1 uM after 6 to 48 hrs by immunofluorescence microscopy. The format is functional, cell-based.
For assay [8], the target named is Tubulin. As to the kind of experiment: Inhibition of tubulin (unknown origin) polymerization after 1 hr by multiplate reader method. The format is protein-complex assay, Homo sapiens.
The target in assay [9] is Tubulin. Briefly: Inhibition of colchicine binding to tubulin (unknown origin). In kind it is protein-complex assay, Homo sapiens.
Assay [10] deals with A549. Briefly: Induction of cell cycle arrest in human A549 cells assessed as accumulation at G2/M phase accumulation at 1 uM after 48 hrs by propidium iodide staining based flow cytometry. In kind it is functional. A general note: Flow cytometry measures light scatter and fluorescence of single cells or particles in a stream.
Assay [11] has as its system A549. As to the kind of experiment: Induction of apoptosis in human A549 cells at 1 uM after 24 to 72 hrs by propidium iodide staining based flow cytometry. The format is functional, cell-based.

With `COc1ccc(/C=C/C(=O)c2c(O)ccc3c2SCO3)cc1`, the IC50 – broadly, the midpoint of a concentration-inhibition curve – in [1] amounted to 7.7 µM; in [2], 6.9 µM; in assay [3], 10.6 µM.

On to `COc1ccc(/C=C/C(=O)c2cc3c(cc2OC)OCS3)cc1F`, for which the IC50 in assay [1] is 0.111 µM; in assay [2], 0.209 µM; in [3], 0.32 µM.

In the case of `CN(C)CCOc1ccc(/C=C/C(=O)c2c(O)ccc3c2SCO3)cc1`, the results for the IC50 in assay [1], in assay [2] and in assay [3] were 1.53 µM, 1.47 µM and 2.05 µM, respectively.

`COc1ccc(/C=C/C(=O)c2cc3c(cc2OC)OCS3)cc1`: the outcome in [4], in assay [6], in [7], in assay [10] and in [11] was Active. Moreover, in assay [5], the inhibition result is “Active”. Further, the IC50 worked out at 0.109 µM in assay [1]; 5.8 µM in assay [8]; 0.489 µM in assay [9]; 0.275 µM in assay [2]; 0.352 µM in [3].

Regarding `O=C(/C=C/c1ccccc1)c1c(O)ccc2c1SCO2`, the results for the IC50 in assay [1], in assay [2] and in [3] were 2.75 µM, 2.21 µM and 3.66 µM, respectively.

Regarding `COc1cc(/C=C/C(=O)c2cc3c(cc2OCC(=O)O)OCS3)cc(OC)c1OC`, the IC50 in assay [1], in [2] and in [3] was more than 10 µM throughout.

`COc1cc(OC)c(/C=C/C(=O)c2cc3c(cc2OC)OCS3)c(OC)c1`: the IC50 in assay [1] was found to be 0.152 µM; in [2], 0.352 µM; in assay [3], 0.308 µM.

On to `COc1cc2c(cc1C(=O)/C=C/c1cc(OC)c(OC)c(OC)c1)SCO2`, for which the IC50 worked out at 4.06 µM in [1], 2.23 µM in assay [2] and 3.47 µM in assay [3].

As for `COc1cc(/C=C/C(=O)c2cc3c(cc2OCCN2CCOCC2)OCS3)cc(OC)c1OC`, the IC50 in [1] came out at 2.37 µM; in assay [2], 1.44 µM; in assay [3], 2.42 µM.

In assay [3], `COc1ccc(/C=C/C(=O)c2cc3c(cc2OC)SCO3)cc1O` had a 50% inhibitory concentration (IC50) of 0.022 µM.

`COc1ccc(OC)c(/C=C/C(=O)c2cc3c(cc2OCCN2CCOCC2)OCS3)c1`: the IC50 was 2.39 µM in [1], 1.44 µM in assay [2] and 2.72 µM in assay [3].

As to `O=C(/C=C/c1ccc(Br)cc1)c1c(O)ccc2c1SCO2`, the IC50 in assay [1] is 2.65 µM; in assay [2] it was 2.87 µM; in assay [3] it was 3.91 µM.

Consider `CC(=O)O[C@H]1C(=O)[C@@]2(C)[C@H]([C@H](OC(=O)c3ccccc3)[C@]3(O)C[C@H](OC(=O)[C@H](O)[C@@H](NC(=O)c4ccccc4)c4ccccc4)C(C)=C1C3(C)C)[C@]1(OC(C)=O)CO[C@@H]1C[C@@H]2O` [PACLITAXEL], for which the half-inhibitory concentration (IC50) in [2] came to 0.004 µM.

Take `COc1cc2c(cc1C(=O)/C=C/c1cc(Br)c(OC)c(OC)c1)SCO2`: the IC50 amounted to 4.04 µM in assay [1], 2.07 µM in assay [2] and 3.43 µM in assay [3].

For the molecule `COc1ccc(/C=C/C(=O)c2cc3c(cc2OCCN2CCOCC2)OCS3)cc1OC`, the IC50 was determined as 3.73 µM in assay [1], 2.29 µM in [2] and 3.78 µM in assay [3].

As to `COc1ccc(/C=C/C(=O)c2c(O)ccc3c2SCO3)cc1F`, the IC50 is 6.84 µM in assay [1], 6.59 µM in [2] and 9.43 µM in [3].

Take `O=C(/C=C/c1cccc(Cl)c1)c1c(O)ccc2c1SCO2`: the IC50 in assay [1] was 2.01 µM; in assay [2] it was 1.31 µM; in assay [3] it was 2.61 µM.

Take `COc1ccc(/C=C/C(=O)c2cc3c(cc2OCC(=O)O)OCS3)cc1`: the IC50 in assay [1], in assay [2] and in assay [3] was more than 10 µM in each case.

Take `COc1ccc(/C=C/C(=O)c2cc3c(cc2OCCN2CCOCC2)OCS3)cc1F`: the values for the IC50 in assay [1], in assay [2] and in assay [3] were 0.71 µM, 1.22 µM and 4.29 µM, respectively.

Regarding `COc1ccc(/C=C/C(=O)c2c(O)ccc3c2SCO3)cc1OC`, the IC50 in [1] stood at 4.55 µM; in assay [2] it was 2.82 µM; in assay [3] it was 5.67 µM.

For `COc1cc2c(cc1C(=O)/C=C/c1ccc(Br)cc1)SCO2`, the IC50 in assay [1] came out at 2.37 µM; in assay [2], 2.16 µM; in assay [3], 3.12 µM.

For `COc1cc2c(cc1C(=O)/C=C/c1ccc(Cl)cc1)SCO2`, the IC50 in [1] amounted to 1.78 µM; in [2], 2.09 µM; in [3] it was 3 µM.

Take `COc1cc2c(cc1C(=O)/C=C/c1ccc(O)cc1)SCO2`: the IC50 is 3.26 µM in assay [1], 8.57 µM in assay [2] and 9.08 µM in assay [3].

`COc1cccc2c1C(=O)c1c(O)c3c(c(O)c1C2=O)C[C@@](O)(C(=O)CO)C[C@@H]3O[C@H]1C[C@H](N)[C@H](O)[C@H](C)O1` [DOXORUBICIN]: the IC50 was 0.154 µM in [1], 0.069 µM in assay [2] and 0.124 µM in assay [3].

In the case of `COc1cc2c(cc1C(=O)/C=C/c1ccc(OCC(=O)O)cc1)SCO2`, the IC50 in assay [1], in [2] and in assay [3] was more than 10 µM throughout.

Take `COc1cc(OC)c(/C=C/C(=O)c2cc3c(cc2OCC(=O)O)OCS3)c(OC)c1`: the IC50 in [1], in assay [2] and in assay [3] was more than 10 µM in each case.

Regarding `COc1ccc(/C=C/C(=O)c2cc3c(cc2OC)OCS3)cc1OC`, the IC50 in [1] amounted to 0.568 µM; in assay [2], 0.74 µM; in assay [3] it was 1.19 µM.

For the molecule `COc1cc2c(cc1C(=O)/C=C/c1cccc(Cl)c1)SCO2`, the results for the IC50 in [1], in [2] and in assay [3] were 1.44 µM, 1.18 µM and 2.04 µM, respectively.

In turn, `CCCOc1cc2c(cc1C(=O)/C=C/c1ccc(OC)c(O)c1)OCS2` came in with an IC50 in assay [3] of 0.009 µM.

Take `O=C(/C=C/c1ccc(Cl)cc1Cl)c1cc2c(cc1OCCN1CCOCC1)OCS2`: the figures for the IC50 in assay [1], in assay [2] and in [3] were 1.55 µM, 0.98 µM and 1.73 µM, respectively.

In the case of `COc1ccc(/C=C/C(=O)c2cc3c(cc2OC)SCO3)cc1`, the values for the half-maximal inhibitory concentration (IC50) in assay [8] and in [9] were 4.15 µM and 0.108 µM, respectively.

As to `COc1cc2c(cc1C(=O)/C=C/c1ccccc1)SCO2`, the IC50 in assay [1] was found to be 1.92 µM; in assay [2], 2.25 µM; in assay [3], 4.1 µM.

As for `COc1ccc(/C=C\c2cc(OC)c(OC)c(OC)c2)cc1O` [COMBRETASTATIN A4], the IC50 in [1] was 0.003 µM; in [2], 0.004 µM.

Consider `COc1cc2c(cc1C(=O)/C=C/c1ccc(CCN(C)C)cc1)SCO2`, for which the IC50 worked out at 1.97 µM in assay [1], 2.54 µM in [2] and 3.4 µM in assay [3].

As to `COc1cc2c(cc1C(=O)/C=C/c1cccc(OC)c1OC)SCO2`, the half-maximal inhibitory concentration (IC50) in assay [1] was 4.02 µM; in assay [2], 3.16 µM; in assay [3], 5.04 µM.

Turning to `CCCOc1cc2c(cc1C(=O)/C=C/c1ccc(OC)c(O)c1)SCO2`, the IC50 in assay [1] was 0.005 µM; in [2], 0.012 µM; in [3], 0.012 µM.

With `O=C(/C=C/c1ccccc1Cl)c1c(O)ccc2c1SCO2`, the IC50 came to 3.07 µM in [1], 1.67 µM in [2] and 3.07 µM in assay [3].
